Assays:
breast cancer patients [1] = experiment: Kaplan-Meier disease free survival of the two therapy arms (E-T-CMF vs. E-CMF) in respect to gene amplifications
Experimental: These samples were formalin-fixed and paraffin-embedded material from primary tumours. A detailed clinical report about all patients was available. The anonymized data included all medical, therapeutical, clinical, histo- and pathological, and follow-up information incl. relapse or survival time.
More than 60 genes were analyzed according to the method disclosed in examples 1 and 2 by quantitative PCR after nucleic acid extraction from formaldehyde-fixed, paraffin-embedded tissue slides. Alterations of the analyzed genes were determined by comparison with at least two reference genes. Reference genes included mainly MMP28 and HNRPDL, but also HBB, B2M, SOD2. […] The reference genes should be independent from the ARCHEON alterations occurring in the neoplastic lesions and should not be affected by chromosomal alterations such as amplifications and deletions. […] By measuring genes located on the X-chromosome (e.g. SRY), the Y-chromosome (e.g. Xist) and on chromosome 21, defined copy numbers of 1, 2 and 3 genes could be determined as internal control during each run for standardization. […] The calculated performance differences were used as a filter for the measurements within the target tissues, i.e. primer/probe differences of each individual gene as depicted in the control cells and tissues were subtracted from each individual gene measurement performed in the target tissue. […]

breast cancer patients [2] = experiment: Bivariate DNA and/or RNA marker combinations, +Taxol arm vs. -Taxol arm, quadrant analysis with Kaplan-Meier plots; conditions: GR3 + 4

For CC(=O)O[C@H]1C(=O)[C@@]2(C)[C@H]([C@H](OC(=O)c3ccccc3)[C@]3(O)C[C@H](OC(=O)[C@H](O)[C@@H](NC(=O)c4ccccc4)c4ccccc4)C(C)=C1C3(C)C)[C@]1(OC(C)=O)CO[C@@H]1C[C@@H]2O [Taxol], the “outcome of Taxol therapy in patients with gene amplification” value (breast cancer patients [1]; FIGS. 2a-c, ErbB4 and VEGF amplified, alone or as a marker set of two genes) was “benefit from Taxol therapy”, the “correlation of gene amplification to Taxol resistance” value (breast cancer patients [1]; TRAG3 amplification) was “no strong correlation” and the Benefit (breast cancer patients [2]; ABCG2_R thr 11.0 / SIVA_D thr 1.3, Quadrant LH) was “OUT: Always beneficial”. For the same compound, the Benefit (breast cancer patients [2]; AFP_R thr −2.2 / EMS1_R thr 18.9, Quadrant HL) was “OUT: Taxol beneficial”, the Benefit (breast cancer patients [2]; AFP_R thr −2.2 / FLT1_D thr 3.3, Quadrant HL) was “OUT: Taxol beneficial” and the Benefit (breast cancer patients [2]; AFP_R thr −2.2 / TRAG3_D thr 1.2, Quadrant HH) was “OUT: Taxol beneficial”. The Benefit (breast cancer patients [2]; AFP_R thr −2.2 / TWIST1_D thr 1.1, Quadrant HH) was “OUT: Taxol beneficial”, the Benefit (breast cancer patients [2]; AFP_R thr −2.5 / ISGF3G_D thr 3.7, Quadrant HL) was “OUT: Taxol beneficial” and the Benefit (breast cancer patients [2]; BUB3_D thr 2.0 / MST1_D thr 2.1, Quadrant HH) was “OUT: Always beneficial”. The Benefit (breast cancer patients [2]; CCNE2_R thr 13.4 / MST1_D thr 2.0, Quadrant LL) was “IN: Always beneficial”, the Benefit (breast cancer patients [2]; CIDEB_R thr 13.7 / ERBB3_R thr 14.7, Quadrant LH) was “IN: Taxol beneficial” and the Benefit (breast cancer patients [2]; CIDEB_R thr 13.7 / RIN1_D thr 2.1, Quadrant LL) was “IN: Taxol beneficial”. For the same compound, the Benefit (breast cancer patients [2]; EMS1_R thr 15.9 / RIN1_D thr 2.1, Quadrant HL) was “IN: Taxol beneficial”, the Benefit (breast cancer patients [2]; EMS1_R thr 16.9 / ERBB3_R thr 14.7, Quadrant HH) was “IN: Taxol beneficial” and the Benefit (breast cancer patients [2]; ERBB3_R thr 14.7 / BRMS1_D thr 4.6, Quadrant HL) was “IN: Taxol beneficial”. The Benefit (breast cancer patients [2]; ERBB3_R thr 14.7 / MUC1_D thr 2.6, Quadrant HL) was “IN: Taxol beneficial”, the Benefit (breast cancer patients [2]; ERBB3_R thr 14.7 / VEGF_D thr 3.9, Quadrant HL) was “IN: Taxol beneficial” and the Benefit (breast cancer patients [2]; ESR1_R thr 12.3 / CA9_R thr 1.4, Quadrant HH) was “OUT: Taxol beneficial”. The Benefit (breast cancer patients [2]; FNTA_R thr 11.9 / ERBB2_D thr 1.8, Quadrant HH) was “OUT: Always beneficial”, the Benefit (breast cancer patients [2]; FolR2_D thr 2.9 / VEGF_D thr 2.6, Quadrant HL) was “IN: Taxol beneficial” and the Benefit (breast cancer patients [2]; GSTP1_D thr 2.2 / ING1L_D thr 1.6, Quadrant LH) was “OUT: Always beneficial”. For the same compound, the Benefit (breast cancer patients [2]; GSTP1_D thr 2.4 / MST1_D thr 2.1, Quadrant LH) was “OUT: Always beneficial”, the Benefit (breast cancer patients [2]; KISS I_D thr 1.3 / ERBB2_D thr 1.8, Quadrant HH) was “OUT: Always beneficial” and the Benefit (breast cancer patients [2]; MYC2_D thr 2.1 / ERBB3_R thr 14.4, Quadrant HH) was “IN: Taxol beneficial”. The Benefit (breast cancer patients [2]; MYC2_D thr 2.2 / CASP10_D thr 2.2, Quadrant HL) was “IN: Taxol beneficial”, the Benefit (breast cancer patients [2]; PGR_R thr 9.1 / RIN1_D thr 2.1, Quadrant HL) was “IN: Taxol beneficial” and the Benefit (breast cancer patients [2]; PGR_R thr 14.3 / ERBB3_R thr 14.7, Quadrant LH) was “IN: Taxol beneficial”. The Benefit (breast cancer patients [2]; PVT1_D thr 1.3 / RIN1_D thr 2.1, Quadrant HL) was “IN: Taxol beneficial”, the Benefit (breast cancer patients [2]; RAD54B_D thr 1.2 / ERBB2_D thr 1.8, Quadrant HH) was “OUT: Always beneficial” and the Benefit (breast cancer patients [2]; RIN1_D thr 2.1 / EMS1_D thr 1.2, Quadrant LH) was “IN: Taxol beneficial”. For the same compound, the Benefit (breast cancer patients [2]; RIN1_D thr 2.1 / VEGF_D thr 1.5, Quadrant LH) was “IN: Taxol beneficial”, the Benefit (breast cancer patients [2]; STAU_R thr 17.6 / FLT1_R thr 3.5, Quadrant LL) was “OUT: Taxol beneficial” and the Benefit (breast cancer patients [2]; TONDO_R thr 12.2 / ErbB4_D thr 2.2, Quadrant LH) was “IN: Taxol beneficial”. For the same compound, the Benefit (breast cancer patients [2]; VEGFa_R thr 13.0 / BOP1_D thr 2.0, Quadrant HH) was “OUT: Always beneficial” and the Benefit (breast cancer patients [2]; VEGFa_R thr 14.1 / AFP_R thr −1.0, Quadrant LH) was “IN: Always beneficial”.

— US20090215036A1, “Genetic Alterations Useful For The Response Prediction of Malignant Neoplasia to Taxane-Based Medical Treatments” (Bayer HealthCare AG, priority 2004, published 2009)
